Where two headings read alike, the source gives them in different places.
Assays:
[1] = tested on: LPS-induced pulmonary inflammation model in rats; assay: LPS-induced pulmonary inflammation model in rats (Method A); type: in vivo; details: Rattus norvegicus, inhaled or nasal, dosage of 1 mg/kg, intratracheal dry powder insufflation 2 h prior LPS challenge, BALF 16 h after LPS, in comparison to the placebo group
Description: Exposure of rats to aerosolized lipopolysaccharide (LPS) causes a pulmonary mainly neutrophilic inflammation, which can be assessed by bronchoalveolar lavage (BAL). LPS-induced pulmonary inflammation models are robust and are commonly used for the evaluation of test compounds modulating the immediate immune response. Phosphodiesterase-4 inhibitors are administered by intratracheal dry powder insufflation 2 h prior nose-only LPS challenge in rats. The antiinflammatory activity of the phosphodiesterase inhibitors is assessed based on pulmonary total leukocyte and neutrophil counts in the bronchoalveolar lavage fluid 16 h after LPS exposure.
Male Sprague Dawley rats weighing 250-300 g are used. Rats are delivered 1 weak prior to the experiments and have free access to water and food.
The test compound in crystalline and micronized state is blended with lactose for inhalation ad 10 mg/kg (Respitose® SV003, DMV International, Netherlands). Respitose® and test compound are transferred to 12 ml tubes and are blended for 10 min. Dilution series are prepared from the this stock blend.
A device consisting of an Abbocath®-T catheter (18G×51 mm), a one-way stop-cock and a 5 ml syringe is used for test compound insufflation. Weighed test compound blends are directly filled in the stop-cocks. Intubation of the rats is guided by sight and is done under a short time halothane anesthesia.
The administered dose of the blended material is 10 mg/kg. The expected material loss in the device is 25%, therefore the weighted dose used is 12.5 mg/kg. One day before the experiment the rat body weights are documented and the mean body weight is used to calculate the administered blend dose per rat. LPS challenged and unchallenged control animals received drug-free Respitose® as placebo. Test compound blends and Respitose are administered 2 h prior LPS challenge.
Conscious and restrained animals are connected to a nose-only exposure system (CR equipment SA, Tannay, Switzerland) and are exposed to the LPS aerosol for 30 min. The LPS-containing aerosol is generated using a compressed air driven medication nebulizer device (OCTURNO Medizintechnik GmbH, Germany). The LPS solution (E. coli, Serotype 055B5, Art.#L2880, Lot#114K4103, Sigma-Aldrich; 0.15 mg/ml, diluted in 0.1% hydroxylamine/PBS) is continuously delivered by a syringe pump (20 ml/h) to the nebulizer device. The aerosol is dispersed and transported to the exposure tower by admixture of compressed air. All rats except negative controls are exposed to LPS.
Sixteen hours after LPS challenge, animals are sacrificed with Trapanal (thiopental, […], 2 ml/rat, i.p.), the final body weights are determined and BALs are performed. For the BAL the trachea is exposed and cannulated, followed by gently lavaging the lungs three times in situ with 4 ml PBS buffer.
Determination of total leukocyte and neutrophil counts in BALF is performed with an automated leukocyte differentiation system (XT-20001V, Sysmex, Norderstedt, Germany).
Suppression of LPS-induced total cell and neutrophil influx into the lungs is calculated in % using the means of the cell counts of each treatment group in relation to the control groups:
Statistical analysis is performed on the primary cell count data using one-way ANOVA and Dunnett's multiple comparison post test vs. positive control. The Grubbs test is used to detect outliers.

[2] = Neutrophil, read-out: reduction of neutrophils
[3] = read-out: reduction of the total cell count

melting point [°C]	Compound	inhibition in vivo at 1 mg/kg [1, 2] [%]	inhibition in vivo at 1 mg/kg [1, 3] [%]
–	COc1ccc(C2=NN(C3CCN(C(=O)c4cc(OCc5ccccc5)ccc4C)CC3)C(=O)C2(C)C)cc1OC [Compound 84, 2-(1-{[5-(Benzyloxy)-2-methylphenyl]carbonyl}piperidin-4-yl)-5-(3,4-dimethoxyphenyl)-4,4-dimethyl-2,4-dihydro-3H-pyrazol-3-one]	15 to 53	22 to 60
–	COc1ccc(C2=NN(C3CCN(S(=O)(=O)c4cccc(C)c4)CC3)C(=O)C2(C)C)cc1OC [Compound 11, 5-(3,4-Dimethoxyphenyl)-4,4-dimethyl-2-{1-[(3-methylphenyl)sulfonyl]piperidin-4-yl}-2,4-dihydro-3H-pyrazol-3-one]	15 to 53	22 to 60
–	COc1ccc(C2=NN(C3CCN(S(=O)(=O)c4ccccc4F)CC3)C(=O)C2(C)C)cc1OC [Compound 14, 5-(3,4-Dimethoxyphenyl)-2-{1-[(2-fluorophenyl)sulfonyl]piperidin-4-yl}-4,4-dimethyl-2,4-dihydro-3H-pyrazol-3-one]	15 to 53	22 to 60
214 to 215	COc1ccc(C2=NN(C3CCN(C(=O)c4cc(O)ccc4C)CC3)C(=O)C2(C)C)cc1OC [Compound 85, 5-(3,4-Dimethoxyphenyl)-2-{1-[(5-hydroxy-2-methylphenyl)carbonyl]piperidin-4-yl}-4,4-dimethyl-2,4-dihydro-3H-pyrazol-3-one]	15 to 53	22 to 60
–	COC(=O)c1ccccc1S(=O)(=O)N1CCC(N2N=C(c3ccc(OC)c(OC)c3)C(C)(C)C2=O)CC1 [Compound 2, Methyl 2-({4-[3-(3,4-dimethoxyphenyl)-4,4-dimethyl-5-oxo-4,5-dihydro-1H-pyrazol-1-yl]piperidin-1-yl}sulfonyl)benzoate]	15 to 53	22 to 60
183	COc1cc(C2=NN(C3CCN(S(=O)(=O)c4cccc(C)c4)CC3)C(=O)C2(C)C)cc2c1OC(C)(C)C2 [Compound 32, 5-(7-Methoxy-2,2-dimethyl-2,3-dihydro-1-benzofuran-5-yl)-4,4-dimethyl-2-{1-[(3-methylphenyl)sulfonyl]piperidin-4-yl}-2,4-dihydro-3H-pyrazol-3-one]	–	–
–	COc1ccc(C2=NN(C3CCN(C(=O)c4cc(O)ccc4F)CC3)C(=O)C2(C)C)cc1OC [Compound 90, 5-(3,4-Dimethoxyphenyl)-2-{1-[(2-fluoro-5-hydroxyphenyl)carbonyl]piperidin-4-yl}-4,4-dimethyl-2,4-dihydro-3H-pyrazol-3-one]	15 to 53	22 to 60
–	COc1ccc(C2=NN(C3CCN(C(=O)c4ccccc4Br)CC3)C(=O)C2(C)C)cc1OC [Compound 72, 2-{1-[(2-Bromophenyl)carbonyl]piperidin-4-yl}-5-(3,4-dimethoxyphenyl)-4,4-dimethyl-2,4-dihydro-3H-pyrazol-3-one]	15 to 53	22 to 60
176	COc1ccc(C2=NN(C3CCN(C(=O)c4ccccc4OC4CCCC4)CC3)C(=O)C2(C)C)cc1OC [Compound 96, 2-(1-{[2-(Cyclopentyloxy)phenyl]carbonyl}piperidin-4-yl)-5-(3,4-dimethoxyphenyl)-4,4-dimethyl-2,4-dihydro-3H-pyrazol-3-one]	15 to 53	22 to 60
265	COc1ccc(C2=NN(C3CCN(C(=O)c4cc5ccccc5[nH]4)CC3)C(=O)C2(C)C)cc1OC [Compound 61, 5-(3,4-Dimethoxyphenyl)-2-[1-(1H-indol-2-ylcarbonyl)piperidin-4-yl]-4,4-dimethyl-2,4-dihydro-3H-pyrazol-3-one]	–	–
244	COc1ccc(C2=NN(C3CCN(S(=O)(=O)c4cccc(C(=O)O)c4)CC3)C(=O)C2(C)C)cc1OC [Compound 25, 3-({4-[3-(3,4-Dimethoxyphenyl)-4,4-dimethyl-5-oxo-4,5-dihydro-1H-pyrazol-1-yl]piperidin-1-yl}sulfonyl)benzoic acid]	–	–
–	COc1ccc(C2=NN(C3CCN(C(=O)c4cccc5ccccc45)CC3)C(=O)C2(C)C)cc1OC [Compound 68, 5-(3,4-Dimethoxyphenyl)-4,4-dimethyl-2-[1-(naphthalen-1-ylcarbonyl)piperidin-4-yl]-2,4-dihydro-3H-pyrazol-3-one]	15 to 53	22 to 60
212 to 213	COc1ccc(C2=NN(C3CCN(C(=O)c4ccccc4O)CC3)C(=O)C2(C)C)cc1OC [Compound 94, 5-(3,4-Dimethoxyphenyl)-2-{1-[(2-hydroxyphenyl)carbonyl]piperidin-4-yl}-4,4-dimethyl-2,4-dihydro-3H-pyrazol-3-one]	15 to 53	22 to 60
214	COC(=O)c1cccc(S(=O)(=O)N2CCC(N3N=C(c4ccc(OC)c(OC)c4)C(C)(C)C3=O)CC2)c1 [Compound 26, Methyl 3-({4-[3-(3,4-dimethoxyphenyl)-4,4-dimethyl-5-oxo-4,5-dihydro-1H-pyrazol-1-yl]piperidin-1-yl}sulfonyl)benzoate]	–	–
–	COc1cccc(C(=O)N2CCC(N3N=C(c4ccc(OC)c(OC)c4)C(C)(C)C3=O)CC2)c1 [Compound 65, 5-(3,4-Dimethoxyphenyl)-2-{1-[(3-methoxyphenyl)carbonyl]piperidin-4-yl}-4,4-dimethyl-2,4-dihydro-3H-pyrazol-3-one]	15 to 53	22 to 60
154 to 156	CCOc1cccc(C(=O)N2CCC(N3N=C(c4ccc(OC)c(OC)c4)C(C)(C)C3=O)CC2)c1 [Compound 70, 5-(3,4-Dimethoxyphenyl)-2-{1-[(3-ethoxyphenyl)carbonyl]piperidin-4-yl}-4,4-dimethyl-2,4-dihydro-3H-pyrazol-3-one]	15 to 53	22 to 60
–	COc1ccc(C2=NN(C3CCN(C(=O)c4cccc(Cl)c4)CC3)C(=O)C2(C)C)cc1OC [Compound 69, 2-{1-[(3-Chlorophenyl)carbonyl]piperidin-4-yl}-5-(3,4-dimethoxyphenyl)-4,4-dimethyl-2,4-dihydro-3H-pyrazol-3-one]	15 to 53	22 to 60
–	COc1ccc(C2=NN(C3CCN(C(=O)c4ccccc4OCC(N)=O)CC3)C(=O)C2(C)C)cc1OC [Compound 97, 2-[2-({4-[3-(3,4-Dimethoxyphenyl)-4,4-dimethyl-5-oxo-4,5-dihydro-1H-pyrazol-1-yl]piperidin-1-yl}carbonyl)phenoxy]acetamide]	15 to 53	22 to 60
–	COc1ccc(C2=NN(C3CCN(S(=O)(=O)c4c(C(C)C)cc(C(C)C)cc4C(C)C)CC3)C(=O)C2(C)C)cc1OC [Compound 9, 5-(3,4-Dimethoxyphenyl)-4,4-dimethyl-2-(1-{[2,4,6-tri(propan-2-yl)phenyl]sulfonyl}piperidin-4-yl)-2,4-dihydro-3H-pyrazol-3-one]	15 to 53	22 to 60
–	COc1ccc(C2=NN(C3CCN(S(=O)(=O)c4ccccc4C(F)(F)F)CC3)C(=O)C2(C)C)cc1OC [Compound 18, 5-(3,4-Dimethoxyphenyl)-4,4-dimethyl-2-(1-{[2-(trifluoromethyl)phenyl]sulfonyl}piperidin-4-yl)-2,4-dihydro-3H-pyrazol-3-one]	15 to 53	22 to 60
